In patent publication US11896591B2, “Compositions and methods for preparing and using mitochondrial uncouplers” (UNIVERSITY OF VIRGINIA PATENT FOUNDATION, priority 2017, dated 2024):

Test system: whole cells
Assay: Oxygen consumption rate (OCR) in whole cells, Seahorse XF-24 Flux Analyzer
Type: cell-based
Details: binned EC50 values; increase in oxygen consumption rate in whole cells
Description: Biological activities of the compounds synthesized is determined by determining increase in oxygen consumption rate (OCR).
OCR is measured using a Seahorse XF-24 Flux Analyzer (Seahorse Biosciences, North Billerica, MA). NMuLi, C2C12, and L6 cells are seeded in a Seahorse 24-well tissue culture plate at a density of 3.5×10^4 cells/well, isolated cardiomyocytes at a density of 4×10^4 cells/well, and human primary fibroblasts at a density of 1.1×10^4 cells/well. The cells are then allowed to adhere for 24 h. […] Compounds are injected during the assay and OCR is measured using 2 min measurement periods.
2-3 wells are used per condition and averaged over three plates (n=6-9). Statistical significance is determined by two-way ANOVA with Bonferroni's posttest.

EC50	SMILES
5 to 20 µM	Fc1cccc(Nc2nc3[nH]c(C(F)(F)F)nc3nc2Nc2ccccc2F)c1 [Compound 12o, N^5-(2-fluorophenyl)-N^6-(3-fluorophenyl)-2-(trifluoromethyl)-1H-imidazo[4,5-b]pyrazine-5,6-diamine]
5 to 20 µM	Fc1ccccc1Nc1nc2nc(C(F)(F)F)[nH]c2nc1Nc1ccccc1 [Compound 12s, N^5-(2-fluorophenyl)-N^6-phenyl-2-(trifluoromethyl)-1H-imidazo[4,5-b]pyrazine-5,6-diamine]
> 20 µM	Fc1ccccc1Nc1nc2nonc2nc1NCCC(F)(F)F [Compound 7d, N^5-(2-fluorophenyl)-N^6-(3,3,3-trifluoropropyl)-[1,2,5]oxadiazolo[3,4-b]pyrazine-5,6-diamine]
5 to 20 µM	CNc1nc2nonc2nc1Nc1ccccc1F [Compound 7a, N^5-(2-fluorophenyl)-N^6-methyl-[1,2,5]oxadiazolo[3,4-b]pyrazine-5,6-diamine]
5 to 20 µM	Fc1ccccc1Nc1nc2nsnc2nc1Nc1ccccc1F [Compound 10, N^5,N^6-bis(2-fluorophenyl)-[1,2,5]thiadiazolo[3,4-b]pyrazine-5,6-diamine]
< 5 µM	Fc1ccc(Nc2nc3nonc3nc2Nc2ccccc2F)cc1 [Compound 4d, N^5-(2-fluorophenyl)-N^6-(4-fluorophenyl)-[1,2,5]oxadiazolo[3,4-b]pyrazine-5,6-diamine]
5 to 20 µM	FC(F)(F)Oc1ccc(Nc2nc3nc(C(F)(F)F)[nH]c3nc2Nc2ccc(OC(F)(F)F)cc2)cc1 [Compound 12m, N^5,N^6-bis(4-(trifluoromethoxy)phenyl)-2-(trifluoromethyl)-1H-imidazo[4,5-b]pyrazine-5,6-diamine]
> 20 µM	Cn1c(C(F)(F)F)nc2nc(Nc3ccccc3F)c(Nc3ccc(OC(F)(F)F)cc3)nc21 [Compound 13p, 1-Methyl-N^5-(2-fluorophenyl)-N^6-(4-(trifluoromethoxy)phenyl)-2-(trifluoromethyl)-imidazo[4,5-b]pyrazine-5,6-diamine]
> 20 µM	Oc1ccc(F)c(Nc2nc3nonc3nc2Nc2ccccc2F)c1 [Compound 4z, 4-Fluoro-3-((6-((2-fluorophenyl)amino)-[1,2,5]oxadiazolo[3,4-b]pyrazin-5-yl)amino)phenol]
< 5 µM	Fc1cc(Nc2nc3nonc3nc2Nc2ccc(C(F)(F)F)c(F)c2)ccc1C(F)(F)F [Compound 3x, N^5,N^6-bis(3-fluoro-4-(trifluoromethyl)phenyl)-[1,2,5]oxadiazolo[3,4-b]pyrazine-5,6-diamine]
> 20 µM	Cn1c(C(F)(F)F)nc2nc(Nc3ccc(C(F)(F)F)c(F)c3)c(Nc3ccc(C(F)(F)F)c(F)c3)nc21 [Compound 13h, N^5,N^6-bis(3-fluoro-4-(trifluoromethyl)phenyl)-1-methyl-2-(trifluoromethyl)-imidazo[4,5-b]pyrazine-5,6-diamine]
5 to 20 µM	Cn1c(C(F)(F)F)nc2nc(Nc3ccccc3C(F)(F)F)c(Nc3ccccc3C(F)(F)F)nc21 [Compound 13c, N^5,N^6-bis(2-(trifluoromethyl)phenyl)-1-methyl-2-(trifluoromethyl)-imidazo[4,5-b]pyrazine-5,6-diamine]
5 to 20 µM	COC(=O)n1c(C(F)(F)F)nc2nc(Nc3ccccc3F)c(Nc3ccccc3F)nc21 [Compound 14a, Methyl 5,6-bis((2-fluorophenyl)amino)-2-(trifluoromethyl)-imidazo[4,5-b]pyrazine-1-carboxylate]
> 20 µM	COc1ccc(Nc2nc3[nH]c(C(F)(F)F)nc3nc2Nc2ccccc2F)cc1 [Compound 12r, N^5-(2-fluorophenyl)-N^6-(4-methoxyphenyl)-2-(trifluoromethyl)-1H-imidazo[4,5-b]pyrazine-5,6-diamine]
< 5 µM	Fc1ccccc1Nc1nc2nonc2nc1Nc1cccc(C(F)(F)F)c1 [Compound 4v, N^5-(2-fluorophenyl)-N^6-(3-(trifluoromethyl)phenyl)-[1,2,5]oxadiazolo[3,4-b]pyrazine-5,6-diamine]
